Test results reported in EP0783524B1, “PEPTIDES AND PHARMACEUTICAL COMPOSITIONS COMPRISING THEM” (YEDA RESEARCH AND DEVELOPMENT CO. LTD., priority 1994, dated 2005).

How the values were obtained:
anti-idiotypic T cells = test: Immunization followed by spleen T cell proliferation assay (anti-idiotypic response), NOD mice; type: in vivo; settings: NOD female mice, 12 weeks old, 100 µg per mouse subcutaneously in IPA; tested 2 or 5 weeks after treatment; C9VDJ peptide 5 µg/ml (Figure 9)
Excerpt: The peptides are useful for the production of a medicine for vaccination against IDDM. • Figure 1. Determination by PCR of TCR, Vβ gene usage in the C9 clone. Lanes 1-19: the 19 different Vβ amplification reactions with the Cβ oligonucleotide primer. Lane s.m.: fx/Hae III size marker. The gel was hybridized with an internal Cβ oligonucleotide probe and therefore the size marker is printed. The two positive bands for Vβ2 and Vβ12 indicate the existence of these segments in the C9 clone. • Figure 2. The presence of sequences homologous to the C9 VDJ rearrangement determined by PCR in different T-cell lines using the specific C9 VDJ oligonucleotide primer. The first four lanes show the results of the NOD lines C9 (lane 1), C7 (2), N4 (3), and an anti-ovalbumin line (4). […] T cell responses to hep60 (idiotype) and to the C9 clone (anti-idiotype) were measured in naive female and male NOD mice. […] The proliferative response was measured'by adding 3H-thymidine to the culture for the last 16 h of a 72 h stimulation. The incorporated 3H-thymidine was measured on a β-counter and the stimulation index (SI) was calculated as cpm incorporation in the presence of antigen/cpm incorporation in the absence of antigen. […]

NOD mice = settings: results of refs (3) and (4); cited from earlier work

Sequence: VLGGGCALLRCIPALDSLTPANED (SEQ ID NO:5) [p277]
- anti-C9 response (proliferation to C9VDJ peptide) after peptide treatment (anti-idiotypic T cells): induces anti-C9 response
- prevention or reversal of diabetes by vaccination (NOD mice): could prevent (3) or even reverse diabetes
